The values below come from PMC3906526 (Archives of Pharmacal Research, 2013).

The target in the assay is c-Kit (Homo sapiens, UniProt P10721). Kind of assay: AlphaBead. The assay is classed as biochemical.
c-Kit, sequence (P10721 544-976): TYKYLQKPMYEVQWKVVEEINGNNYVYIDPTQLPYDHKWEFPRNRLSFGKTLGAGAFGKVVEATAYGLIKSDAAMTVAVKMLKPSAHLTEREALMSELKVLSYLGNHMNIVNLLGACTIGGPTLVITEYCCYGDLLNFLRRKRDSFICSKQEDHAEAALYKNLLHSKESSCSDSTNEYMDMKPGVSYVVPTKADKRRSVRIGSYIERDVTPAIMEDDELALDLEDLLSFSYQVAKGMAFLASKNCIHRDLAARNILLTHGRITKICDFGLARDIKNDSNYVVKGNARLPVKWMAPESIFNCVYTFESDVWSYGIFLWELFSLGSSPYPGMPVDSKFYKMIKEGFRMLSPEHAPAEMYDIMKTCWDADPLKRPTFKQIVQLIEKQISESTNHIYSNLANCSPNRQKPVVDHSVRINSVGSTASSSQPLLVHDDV

Broadly, the IC50 is the concentration needed to halve the response being measured. As for `COc1ccc(-c2cc(=O)c3c(O)cc(O)cc3o2)cc1` [Y1, acacetin], the IC50 was 13.3 µM. The figure for `O=c1cc(-c2ccc(O)c(O)c2)oc2cc(O)cc(O)c12` [Y4, luteolin] is 1 µM; for `O=c1cc(-c2ccc(O)cc2)oc2cc(O)cc(O)c12` [Y3, apigenin] it is 4.7 µM.
